Results reported in patent publication US8192962B2, “Processes for detecting toxic substances” (Daikin Industries, Ltd., priority 2001, dated 2012).

Test system: Energy system protein genes
Assay: DNA chip mRNA expression in yeast, energy system protein genes (Table 4)
Format: cell-based, Saccharomyces cerevisiae S288C
Outline: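 Chemical exposure: 2 h, log-phase S. cerevisiae S288C, YPD, 25° C., dose set to inhibit growth without death. Profiling: mRNA labeled by reverse transcription with Cy3- or Cy5-dUTP, hybridized to whole-genome array. Output: fluorescence ratio against untreated culture.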

**Q.** Which “The level of expressed mRNA in the presence of chemical substance/The level of expressed mRNA in the absence of chemical substance” value (yeast gene YJR048W) does the source give for Na2As [(1)] here?
**A.** Its value is 1.3.

**Q.** And the “The level of expressed mRNA in the presence of chemical substance/The level of expressed mRNA in the absence of chemical substance” value (yeast gene YJR121W, cells incubated two hours with the chemical substance)?
**A.** Its value is 1.2.

**Q.** What about the “The level of expressed mRNA in the presence of chemical substance/The level of expressed mRNA in the absence of chemical substance” value (yeast gene YJR155W) of the same substance?
**A.** The value was 7.6.

**Q.** And the “The level of expressed mRNA in the presence of chemical substance/The level of expressed mRNA in the absence of chemical substance” value (yeast gene YKL016C, cells incubated two hours with the chemical substance)?
**A.** The value was 1.5.

**Q.** What about the “The level of expressed mRNA in the presence of chemical substance/The level of expressed mRNA in the absence of chemical substance” value (yeast gene YKL060C, cells incubated two hours with the chemical substance) of the same substance?
**A.** Its value is 1.7.

**Q.** What about the “The level of expressed mRNA in the presence of chemical substance/The level of expressed mRNA in the absence of chemical substance” value (yeast gene YKL141W, cells incubated two hours with the chemical substance) of the same substance?
**A.** Its value is 1.6.

**Q.** And the “The level of expressed mRNA in the presence of chemical substance/The level of expressed mRNA in the absence of chemical substance” value (yeast gene YKL148C, cells incubated two hours with the chemical substance)?
**A.** Its value is 0.9.

**Q.** What about the “The level of expressed mRNA in the presence of chemical substance/The level of expressed mRNA in the absence of chemical substance” value (yeast gene YKR009C, cells incubated two hours with the chemical substance) of the same substance?
**A.** Its value is 1.0.

**Q.** And the “The level of expressed mRNA in the presence of chemical substance/The level of expressed mRNA in the absence of chemical substance” value (yeast gene YKR058W, cells incubated two hours with the chemical substance, 25° C., YPD medium)?
**A.** Its value is 1.3.

**Q.** And the “The level of expressed mRNA in the presence of chemical substance/The level of expressed mRNA in the absence of chemical substance” value (yeast gene YKR097W)?
**A.** Its value is 1.6.

**Q.** And the “The level of expressed mRNA in the presence of chemical substance/The level of expressed mRNA in the absence of chemical substance” value (yeast gene YLL041C, cells incubated two hours with the chemical substance)?
**A.** The value was 1.5.

**Q.** What about the “The level of expressed mRNA in the presence of chemical substance/The level of expressed mRNA in the absence of chemical substance” value (yeast gene YLR038C, cells incubated two hours with the chemical substance) of the same substance?
**A.** The value was 2.6.

**Q.** And the “The level of expressed mRNA in the presence of chemical substance/The level of expressed mRNA in the absence of chemical substance” value (yeast gene YLR044C, cells incubated two hours with the chemical substance)?
**A.** Its value is 0.8.

**Q.** What about the “The level of expressed mRNA in the presence of chemical substance/The level of expressed mRNA in the absence of chemical substance” value (yeast gene YLR134W, cells incubated two hours with the chemical substance) of the same substance?
**A.** The value was 0.9.

**Q.** What about the “The level of expressed mRNA in the presence of chemical substance/The level of expressed mRNA in the absence of chemical substance” value (yeast gene YLR258W, cells incubated two hours with the chemical substance) of the same substance?
**A.** The value was 1.7.

**Q.** What about the “The level of expressed mRNA in the presence of chemical substance/The level of expressed mRNA in the absence of chemical substance” value (yeast gene YLR284C, cells incubated two hours with the chemical substance) of the same substance?
**A.** The value was 0.9.

**Q.** And the “The level of expressed mRNA in the presence of chemical substance/The level of expressed mRNA in the absence of chemical substance” value (yeast gene YLR295C, cells incubated two hours with the chemical substance, 25° C., YPD medium)?
**A.** The value was 1.5.

**Q.** What about the “The level of expressed mRNA in the presence of chemical substance/The level of expressed mRNA in the absence of chemical substance” value (yeast gene YLR304C, cells incubated two hours with the chemical substance) of the same substance?
**A.** Its value is 0.7.

**Q.** What about the “The level of expressed mRNA in the presence of chemical substance/The level of expressed mRNA in the absence of chemical substance” value (yeast gene YLR345W) of the same substance?
**A.** The value was 1.4.

**Q.** What about the “The level of expressed mRNA in the presence of chemical substance/The level of expressed mRNA in the absence of chemical substance” value (yeast gene YLR354C, cells incubated two hours with the chemical substance) of the same substance?
**A.** Its value is 1.2.

**Q.** What about the “The level of expressed mRNA in the presence of chemical substance/The level of expressed mRNA in the absence of chemical substance” value (yeast gene YLR377C, cells incubated two hours with the chemical substance) of the same substance?
**A.** Its value is 1.1.

**Q.** What about the “The level of expressed mRNA in the presence of chemical substance/The level of expressed mRNA in the absence of chemical substance” value (yeast gene YLR395C, cells incubated two hours with the chemical substance) of the same substance?
**A.** The value was 1.8.

**Q.** What about the “The level of expressed mRNA in the presence of chemical substance/The level of expressed mRNA in the absence of chemical substance” value (yeast gene YML087C) of the same substance?
**A.** Its value is 1.8.

**Q.** What about the “The level of expressed mRNA in the presence of chemical substance/The level of expressed mRNA in the absence of chemical substance” value (yeast gene YML120C, cells incubated two hours with the chemical substance) of the same substance?
**A.** The value was 1.1.

**Q.** And the “The level of expressed mRNA in the presence of chemical substance/The level of expressed mRNA in the absence of chemical substance” value (yeast gene YML129C, cells incubated two hours with the chemical substance)?
**A.** The value was 1.1.

**Q.** And the “The level of expressed mRNA in the presence of chemical substance/The level of expressed mRNA in the absence of chemical substance” value (yeast gene YMR073C, cells incubated two hours with the chemical substance)?
**A.** Its value is 1.1.

**Q.** And the “The level of expressed mRNA in the presence of chemical substance/The level of expressed mRNA in the absence of chemical substance” value (yeast gene YMR118C)?
**A.** The value was 1.3.

**Q.** What about the “The level of expressed mRNA in the presence of chemical substance/The level of expressed mRNA in the absence of chemical substance” value (yeast gene YMR205C, cells incubated two hours with the chemical substance) of the same substance?
**A.** The value was 0.5.

**Q.** What about the “The level of expressed mRNA in the presence of chemical substance/The level of expressed mRNA in the absence of chemical substance” value (yeast gene YMR261C, cells incubated two hours with the chemical substance) of the same substance?
**A.** The value was 0.8.

**Q.** And the “The level of expressed mRNA in the presence of chemical substance/The level of expressed mRNA in the absence of chemical substance” value (yeast gene YMR267W, cells incubated two hours with the chemical substance, 25° C., YPD medium)?
**A.** Its value is 0.8.

**Q.** What about the “The level of expressed mRNA in the presence of chemical substance/The level of expressed mRNA in the absence of chemical substance” value (yeast gene YMR323W, cells incubated two hours with the chemical substance) of the same substance?
**A.** Its value is 0.8.

**Q.** What about the “The level of expressed mRNA in the presence of chemical substance/The level of expressed mRNA in the absence of chemical substance” value (yeast gene YNL071W) of the same substance?
**A.** The value was 0.9.

**Q.** And the “The level of expressed mRNA in the presence of chemical substance/The level of expressed mRNA in the absence of chemical substance” value (yeast gene YNL202W, cells incubated two hours with the chemical substance)?
**A.** The value was 0.7.

**Q.** What about the “The level of expressed mRNA in the presence of chemical substance/The level of expressed mRNA in the absence of chemical substance” value (yeast gene YNL241C) of the same substance?
**A.** Its value is 1.3.

**Q.** What about the “The level of expressed mRNA in the presence of chemical substance/The level of expressed mRNA in the absence of chemical substance” value (yeast gene YNL331C) of the same substance?
**A.** The value was 8.6.

**Q.** What about the “The level of expressed mRNA in the presence of chemical substance/The level of expressed mRNA in the absence of chemical substance” value (yeast gene YOL086C, cells incubated two hours with the chemical substance) of the same substance?
**A.** The value was 1.1.

**Q.** And the “The level of expressed mRNA in the presence of chemical substance/The level of expressed mRNA in the absence of chemical substance” value (yeast gene YOL165C)?
**A.** Its value is 10.1.

**Q.** What about the “The level of expressed mRNA in the presence of chemical substance/The level of expressed mRNA in the absence of chemical substance” value (yeast gene YOR142W, cells incubated two hours with the chemical substance) of the same substance?
**A.** Its value is 1.3.

**Q.** And the “The level of expressed mRNA in the presence of chemical substance/The level of expressed mRNA in the absence of chemical substance” value (yeast gene YOR178C, cells incubated two hours with the chemical substance)?
**A.** The value was 1.4.

**Q.** And the “The level of expressed mRNA in the presence of chemical substance/The level of expressed mRNA in the absence of chemical substance” value (yeast gene YOR388C, cells incubated two hours with the chemical substance)?
**A.** Its value is 1.0.

**Q.** And the “The level of expressed mRNA in the presence of chemical substance/The level of expressed mRNA in the absence of chemical substance” value (yeast gene YPL031C, cells incubated two hours with the chemical substance)?
**A.** The value was 0.9.

**Q.** What about the “The level of expressed mRNA in the presence of chemical substance/The level of expressed mRNA in the absence of chemical substance” value (yeast gene YPL061W, cells incubated two hours with the chemical substance) of the same substance?
**A.** The value was 0.4.

**Q.** And the “The level of expressed mRNA in the presence of chemical substance/The level of expressed mRNA in the absence of chemical substance” value (yeast gene YPL088W)?
**A.** Its value is 3.3.

**Q.** What about the “The level of expressed mRNA in the presence of chemical substance/The level of expressed mRNA in the absence of chemical substance” value (yeast gene YPL171C) of the same substance?
**A.** Its value is 15.2.

**Q.** What about the “The level of expressed mRNA in the presence of chemical substance/The level of expressed mRNA in the absence of chemical substance” value (yeast gene YPL240C) of the same substance?
**A.** Its value is 0.7.

**Q.** What about the “The level of expressed mRNA in the presence of chemical substance/The level of expressed mRNA in the absence of chemical substance” value (yeast gene YPL262W, cells incubated two hours with the chemical substance) of the same substance?
**A.** Its value is 1.1.

**Q.** What about the “The level of expressed mRNA in the presence of chemical substance/The level of expressed mRNA in the absence of chemical substance” value (yeast gene YPL275W, cells incubated two hours with the chemical substance) of the same substance?
**A.** Its value is 0.6.

**Q.** What about the “The level of expressed mRNA in the presence of chemical substance/The level of expressed mRNA in the absence of chemical substance” value (yeast gene YPL276W, cells incubated two hours with the chemical substance) of the same substance?
**A.** The value was 1.2.

**Q.** And the “The level of expressed mRNA in the presence of chemical substance/The level of expressed mRNA in the absence of chemical substance” value (yeast gene YPR048W, cells incubated two hours with the chemical substance)?
**A.** Its value is 1.3.

**Q.** And the “The level of expressed mRNA in the presence of chemical substance/The level of expressed mRNA in the absence of chemical substance” value (yeast gene YPR184W, cells incubated two hours with the chemical substance)?
**A.** Its value is 1.2.
